From patent US9429521B2, “Plant phenometrics systems and methods and devices related thereto” (BOARD OF TRUSTEES OF MICHIGAN STATE UNIVERSITY, priority 2012, dated 2016)

Legend:
[1] = system: Arabidopsis thaliana plants (col-0); assay: Continuous in situ chlorophyll fluorescence imaging of ΦII with white actinic LED after coronatine spraying; assay type: in vivo; conditions: 5 μM sprayed
Protocol: (§1) Arabidopsis thaliana plants (col-0) were grown on soil at 22° C. day temperature and 18° C. night temperature, 50% humidity and an intensity of μmol photons m^−2 s^−1 with an 16:8 day:night cycle. Chlorophyll a fluorescence images of steady state (FS) and the fluorescence maximum at steady state (FM′) were collected at growth light intensity and in the absence or presence of saturating illumination, respectively. These images were used to generate images of ΦII, a measure of photosynthetic efficiency on the day of and after treatment (by spraying) with 5 μM coronatine (cor) or water (control). Coronatine is a compound produced by a bacterial plant pathogen. As a chemical analog of jasmonic acid, it elicits a stress response, which includes differential induction and repression of classes of photosynthesis associated genes (PAGs). To determine if there were immediate and/or sustained effects on photosynthesis, imaging was performed discontinuously in an imager that used monochromatic (red) actinic light or continuously in situ in a growth chamber outfitted with a white actinic LED imaging system. For discontinuous imaging, plants were maintained in the growth chamber where they were treated and transferred to and from the fluorescence imager for measurements. For in situ imaging, the plants were allowed to readjust after transfer to the new chamber with white LED lighting for at least 24 hours prior to treatment and were kept in the chamber for the duration of experiment.
Imaging in situ with white LED actinic illumination minimized the stress of moving a plant from its growth environment to the instrument and with automated image capture facilitated collection of data at higher time resolution (FIG. 10). […] The effect is also heterogeneous, more strongly observed in some leaves or not occurring at all in other (younger) leaves.

[2] = system: Arabidopsis thaliana plants (col-0); assay: Discontinuous chlorophyll fluorescence imaging of ΦII with red actinic light after coronatine spraying; assay type: in vivo; conditions: 5 μM sprayed, monochromatic (red) actinic light, 1, 4, 8 and 24 hours after treatment
Protocol: as §1, with “To determine if there were immediate and/or sustained effects on photosynthesis, imaging was performed discontinuously in an imager that used monochromatic (red) actinic light or continuously in situ in a growth chamber outfitted with a white actinic LED imaging system.” left out

In the case of `CC[C@H]1C=C(C(=O)N[C@@]2(C(=O)O)C[C@@H]2CC)[C@H]2CCC(=O)[C@H]2C1` [coronatine], the “photosynthetic efficiency (ΦII) effect” value ([1]; in situ imaging, second day after treatment (more recent studies, not shown)) is reported as “the effect was not observed”, the “photosynthetic efficiency (ΦII)” value ([1]; white LED in situ imaging, early morning on the day after treatment (21 hours)) is reported as “large decrease in photosynthetic efficiency” and the “photosynthetic efficiency (ΦII) effect” value ([1]; white LED in situ imaging, mid-morning on the day after treatment (25 hours)) is reported as “almost completely disappears”. For the same molecule, the “ΦII (photosynthetic efficiency), treated vs untreated plants” value [2] was “no differences between treated and untreated plants”.
